# Measured values taken from ChEMBL document CHEMBL1201862, “PubChem BioAssay data set” (2004).
# The source made the active and inactive calls.
# Tests used:
# [1] = target: T1, Disintegrin and metalloproteinase domain-containing protein 17 (Homo sapiens, UniProt P78536); assay: ADAM17 protease inhibitors, dose response, counter-screen for ADAM10 exosite inhibitor project, biochemical, quenched FRET substrate (AID 743253)
# [2] = ADAM10 inhibitors, peptide cleavage, dose response, biochemical, QFRET (AID 743254);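 also: ADAM10 enzyme with the DM2 quenched FRET peptide as substrate; EDANS fluorescence gain as the protease cuts the substrate; inhibitor potency against ADAM10 proteolytic activity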
# [3] = A Cell-Based Confirmatory Screen for Compounds that Inhibit VEEV, TC-83 (3).; type: functional
# [4] = Vero 76 cell cytotoxicity, dose response, cytotoxicity control, set 3 (AID 602439); type: functional; details: Venezuelan equine encephalitis virus
# [5] = target: T2, NAD-dependent protein deacylase sirtuin-5, mitochondrial (Homo sapiens, UniProt Q9NXA8); assay: SIRT5 desuccinylase inhibitors, dose response, biochemical, fluorescence imaging, cherry-pick, set 5 (AID 720591);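 also: desuccinylation of succinyl peptide AMC substrate read as fluorescence after trypsin release; potency of inhibitors that lower fluorescence and may act on trypsin instead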
# [6] = target: Major prion protein (Homo sapiens, UniProt P04156); type: functional, cell-based
# [7] = cells
# [8] = inhibitors of non-replicating M. tuberculosis, dose response, luciferase, dry powder (AID 651620); type: functional; details: Mycobacterium tuberculosis
# [9] = inhibitors of non-replicating M. tuberculosis, dose response, luciferase, dry powder (AID 651619); type: functional; details: Mycobacterium tuberculosis
# [10] = target: T2, NAD-dependent protein deacylase sirtuin-5, mitochondrial; assay: SIRT5 deacylase inhibitors, dose response, biochemical, fluorescence imaging, cherry-pick, set 6 (AID 720597)
# [11] = target: T1, Disintegrin and metalloproteinase domain-containing protein 17; assay: exosite inhibitors of ADAM17, dose response, biochemical (AID 743260)
# [12] = YAP1 pathway inhibition via CTGF transcript levels, dose response, cell-based, DLD1 colon cancer, RT-qPCR, cherry-pick (AID 1053122); type: functional; details: Cancer cell lines
# [13] = CTGF mRNA reduction under YAP1 overexpression, dose response, mechanism study for YAP1 pathway inhibitor project, DLD1 cells, RT-qPCR, cherry-pick (AID 1053127); type: functional, cell-based; details: DLD-1
# [14] = target: Mu-type opioid receptor (Homo sapiens, UniProt P35372); type: functional, cell-based;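 also: U2OS cells with beta-arrestin recruitment to OPRM1 by beta-gal complementation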
# [15] = target: 5-hydroxytryptamine receptor 2A (Mus musculus, UniProt P35363); type: functional, cell-based;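 also: CHO-K1 cells with tagged receptor and beta-arrestin; agonist potency measured as compound-induced activation of the receptor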
# [16] = target: T3, Lysine-specific demethylase 4C (Homo sapiens, UniProt Q9H3R0); assay: GASC-1 (JMJD2C) histone demethylase inhibitors, dose response, biochemical, DELFIA europium, cherry-picked samples (AID 488835); type: functional
# T3 sequence (Q9H3R0 whole entry): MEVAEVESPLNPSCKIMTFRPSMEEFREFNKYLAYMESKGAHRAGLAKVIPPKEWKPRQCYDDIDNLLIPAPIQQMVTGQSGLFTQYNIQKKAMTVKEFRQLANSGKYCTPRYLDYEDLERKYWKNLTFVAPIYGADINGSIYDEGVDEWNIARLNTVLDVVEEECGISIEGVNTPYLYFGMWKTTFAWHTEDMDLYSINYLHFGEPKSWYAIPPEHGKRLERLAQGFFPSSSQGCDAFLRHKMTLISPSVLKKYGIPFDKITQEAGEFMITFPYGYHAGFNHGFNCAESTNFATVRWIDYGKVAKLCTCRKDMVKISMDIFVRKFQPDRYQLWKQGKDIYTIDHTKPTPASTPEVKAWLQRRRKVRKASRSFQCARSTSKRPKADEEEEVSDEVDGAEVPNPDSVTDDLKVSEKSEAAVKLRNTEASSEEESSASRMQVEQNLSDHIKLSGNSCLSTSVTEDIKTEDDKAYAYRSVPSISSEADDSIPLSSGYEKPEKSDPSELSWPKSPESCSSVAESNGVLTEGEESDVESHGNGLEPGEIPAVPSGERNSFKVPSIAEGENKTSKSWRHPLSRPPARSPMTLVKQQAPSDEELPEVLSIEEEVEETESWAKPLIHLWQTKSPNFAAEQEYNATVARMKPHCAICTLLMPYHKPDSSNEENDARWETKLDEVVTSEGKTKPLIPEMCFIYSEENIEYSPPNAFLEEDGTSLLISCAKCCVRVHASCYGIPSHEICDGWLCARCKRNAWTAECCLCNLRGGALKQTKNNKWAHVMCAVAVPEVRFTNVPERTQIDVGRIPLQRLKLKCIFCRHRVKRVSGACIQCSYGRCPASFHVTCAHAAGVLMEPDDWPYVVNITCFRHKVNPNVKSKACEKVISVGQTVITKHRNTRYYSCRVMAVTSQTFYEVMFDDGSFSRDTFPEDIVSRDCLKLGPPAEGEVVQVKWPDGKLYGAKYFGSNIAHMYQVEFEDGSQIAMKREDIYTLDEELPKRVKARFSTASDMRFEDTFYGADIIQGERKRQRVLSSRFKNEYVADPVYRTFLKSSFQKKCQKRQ
# [17] = target: T4, DNA repair protein RAD52 homolog (Homo sapiens, UniProt P43351); type: functional, biochemical
# T4 sequence (P43351 whole entry): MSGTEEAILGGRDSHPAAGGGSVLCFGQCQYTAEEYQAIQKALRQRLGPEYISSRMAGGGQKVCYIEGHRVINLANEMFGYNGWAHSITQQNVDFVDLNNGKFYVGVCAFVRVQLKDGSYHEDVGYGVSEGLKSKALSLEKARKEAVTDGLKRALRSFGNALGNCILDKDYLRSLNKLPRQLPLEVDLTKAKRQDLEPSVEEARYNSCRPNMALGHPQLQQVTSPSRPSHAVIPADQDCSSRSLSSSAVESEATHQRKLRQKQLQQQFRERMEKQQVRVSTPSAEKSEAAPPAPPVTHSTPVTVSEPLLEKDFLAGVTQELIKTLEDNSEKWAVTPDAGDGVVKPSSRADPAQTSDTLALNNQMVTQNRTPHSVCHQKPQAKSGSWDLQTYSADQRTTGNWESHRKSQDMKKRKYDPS
# [18] = cells; remark: listed apart in the source
# [19] = target: T5, Oxysterols receptor LXR-beta (Homo sapiens, UniProt P55055); type: functional, cell-based
# [20] = A549 cell cytotoxicity, dose response, cytotoxicity control, plate reader, cherry-pick, antagonist series (AID 743412); type: functional, cell-based
# [21] = LGR2 antagonists, dose response, cell-based, HEK293, CRE-luciferase reporter, cherry pick (AID 743342); type: functional
# [22] = system: HEK293; assay: HEK293T cell cytotoxicity, dose response, cytotoxicity control, ATP luminescence, cherry-pick samples (AID 687005); type: functional, cell-based; details: Homo sapiens;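 also: cells exposed to compound for 48 hours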
# [23] = HEK293 Cytotoxicity Assay Measured in Cell-Based System Using Plate Reader - 7071-01_Inhibitor_Dose_CherryPick_Activity_Set2.; type: functional
# [24] = inhibitors of fibronectin matrix deposition, dose response, AH1F cells, Alexa488-FN fluorescence, cherry-picks (AID 1035475); type: functional, cell-based
# [25] = HEK293 cell cytotoxicity, dose response, cytotoxicity control, cherry-picks, set 5 (AID 1053117); type: functional, cell-based
# [26] = target: Fatty acid synthase (Homo sapiens, UniProt P49327); assay: FAS thioesterase domain inhibitors, SAR follow-up, biochemical, endpoint fluorescence intensity, powder samples (AID 652164); type: functional
# [27] = HepG2 cell cytotoxicity, dose response, cytotoxicity control, ATP luminescence, cherry-pick, activator set 2 (AID 1053143); type: functional, cell-based
# [28] = target: T6, Short transient receptor potential channel 4 (Mus musculus, UniProt Q9QUQ5); assay: mouse TRPC4 channel inhibitors, dose response, cell-based, HEK293 TRPC4/mu-opioid, Fluo-4 calcium (AID 434942); type: functional;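 also: potency of inhibitors blocking the TRPC4 calcium response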
# T6 sequence (Q9QUQ5 whole entry): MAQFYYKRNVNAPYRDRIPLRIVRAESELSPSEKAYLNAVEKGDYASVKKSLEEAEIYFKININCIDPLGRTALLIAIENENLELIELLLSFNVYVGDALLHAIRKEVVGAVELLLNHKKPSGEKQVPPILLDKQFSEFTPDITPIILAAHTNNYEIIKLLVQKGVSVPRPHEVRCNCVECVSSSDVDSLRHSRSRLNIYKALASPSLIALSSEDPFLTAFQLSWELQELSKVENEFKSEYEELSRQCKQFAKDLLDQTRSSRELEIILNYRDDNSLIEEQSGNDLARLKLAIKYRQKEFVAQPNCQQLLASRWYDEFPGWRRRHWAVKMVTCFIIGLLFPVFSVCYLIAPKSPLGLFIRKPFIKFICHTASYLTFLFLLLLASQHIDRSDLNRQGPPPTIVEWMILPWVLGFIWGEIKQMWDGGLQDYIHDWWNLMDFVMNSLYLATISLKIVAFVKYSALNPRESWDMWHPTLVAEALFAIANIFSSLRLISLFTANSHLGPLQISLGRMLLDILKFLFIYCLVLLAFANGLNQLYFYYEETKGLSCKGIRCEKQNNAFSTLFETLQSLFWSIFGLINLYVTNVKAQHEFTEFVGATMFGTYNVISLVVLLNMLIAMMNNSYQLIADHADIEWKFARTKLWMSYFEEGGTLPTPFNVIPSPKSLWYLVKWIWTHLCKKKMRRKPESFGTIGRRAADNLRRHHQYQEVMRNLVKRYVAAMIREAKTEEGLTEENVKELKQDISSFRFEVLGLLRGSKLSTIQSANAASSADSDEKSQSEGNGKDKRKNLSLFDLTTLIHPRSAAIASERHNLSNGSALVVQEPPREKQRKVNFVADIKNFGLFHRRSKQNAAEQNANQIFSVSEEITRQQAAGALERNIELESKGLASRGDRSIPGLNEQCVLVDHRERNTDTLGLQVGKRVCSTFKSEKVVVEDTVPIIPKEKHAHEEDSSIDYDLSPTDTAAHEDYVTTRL
# [29] = target: Beta-galactosidase (Escherichia coli, UniProt Q8VNN2); assay: Dose response counterscreen for EBI2 assay utilizing the enzyme, b-galactosidase.; type: functional
# [30] = T. cruzi growth inhibition in host cells, dose response, cell-based, plate reader, dry powder, set 2 (AID 652275); type: functional
# [31] = T. cruzi intracellular amastigote growth inhibition, dose response, imaging, CA-I/72 strain, bovine embryo skeletal muscle, dry powder (AID 651885); type: functional, cell-based
# [32] = target: T5, Oxysterols receptor LXR-beta; type: functional, cell-based; remark: listed apart in the source
# [33] = system: HeLa; assay: HeLa cell cytotoxicity, dose response, cytotoxicity control, ATP luminescence, cherry-pick samples (AID 687004); type: functional, cell-based; details: Homo sapiens
# [34] = target: Protein Wnt-3a (Mus musculus, UniProt P27467); assay: SAR analysis of small molecule antagonists of Gli-SUFU in a Wnt3a luminescent reporter assay.; type: functional
# [35] = target: Arf-GAP with SH3 domain, ANK repeat and PH domain-containing protein 1 (Homo sapiens, UniProt Q9ULH1); type: functional;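 also: biochemical fluorescence polarization dose–response screen measuring inhibition of ASAP1; ASAP1 GAP domain stimulating GTP hydrolysis by truncated human ARF1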
# [36] = target: ADP-ribosylation factor GTPase-activating protein 1 (Rattus norvegicus, UniProt Q62848); assay: Fluorescence polarization-based biochemical high throughput dose response screening assay to identify inhibitors of ADP-ribosylation factor GTPase activating protein 1 (ARFGAP1).; type: functional
compound,measurement,setting,value
O=C(Nc1ccc2c(c1)OCCO2)C(c1ccnc2ccccc12)N1CCC(Cc2ccccc2)CC1 (configuration not stated),IC50,[1],> 69.5 µM (inactive)
same,IC50,[2],> 69.5 µM (inactive)
Cc1cc(Cc2cc(C)cc(C(C)(C)C)c2O)c(O)c(Cc2cc(C)cc(C(C)(C)C)c2O)c1,IC50,[3],> 25 µM (active)
same,CC50,[4],43.1 µM (active)
O=C(CCC(=O)OCc1ccc(Br)cc1)Nc1ccccc1,AC50,[5],> 30 µM (inactive)
O=C(C1=C(O)C(=O)N(CCN2CCOCC2)C1c1cccc(F)c1)c1cc2ccccc2o1 (configuration not stated),IC50,[6],6.77 µM (active)
same,IC50,[7],> 138 µM (inactive)
CSc1nnc(-c2ccccc2)o1,IC90,[8],125 µM (active)
same,IC90,[9],125 µM (active)
CCC(=O)N1CC[C@@H]2[C@@H](CO)Nc3ccc(C#Cc4cccnc4)cc3[C@@H]21,AC50,[10],> 30 µM (inactive)
COc1cccc(C2C(C#N)=C(N)Oc3c2oc(CO)cc3=O)c1 (configuration not stated),IC50,[11],> 69.5 µM (inactive)
O=C(Cc1ccncc1)N1CCCCN2[C@H](CO)[C@H](c3ccc(C#Cc4ccccc4F)cc3)[C@@H]2C1,AC50,[12],5.41 µM (active)
same,AC50,[13],7.5 µM (active)
NCC(O)c1cc(O)c(O)cc1F (configuration not stated),EC50,[14],92.6 µM (inactive)
same,EC50,[15],0.724 µM (active)
same,AC50,[16],11.2 µM (active)
same,AC50,[17],6.44 µM (active)
Fc1cccc(F)c1/C=N/Nc1ccccn1,EC50,[18],> 67.5 µM (inactive)
same,EC50,[19],> 67.5 µM (inactive)
C[C@H](CO)N1C[C@H](C)[C@H](CN(C)C(=O)Nc2ccccc2)OCCCC[C@H](C)Oc2ccc(NC(=O)CCC(F)(F)F)cc2C1=O,AC50,[20],> 52 µM (inactive)
same,AC50,[21],13.9 µM (active)
Cc1ccc(S(=O)(=O)N2CC[C@@H]3[C@H]2c2cc(-c4ccccc4F)ccc2N[C@@H]3CO)cc1,AC50,[22],> 47 µM (inactive)
same,AC50,[23],> 47 µM (inactive)
COc1cccc(-c2ccc3c(c2)[C@@H]2[C@@H](CCN2S(=O)(=O)c2cccc(OC)c2)[C@H](CO)N3)c1,AC50,[24],57.8 µM (active)
same,AC50,[25],30.5 µM (active)
CC1CCN(S(=O)(=O)c2ccc(-c3csc(NC(=O)C4CC4)n3)cc2)CC1,IC50,[26],> 80 µM (inactive)
Cc1nc2ccccc2n1CC(O)COc1ccccc1Cl (configuration not stated),AC50,[27],> 52 µM (inactive)
same,EC50,[28],3.35 µM (active)
CS(=O)(=O)N(CC(=O)NCCSc1ccc(Cl)cc1)c1ccc2c(c1)OCO2,IC50,[29],> 80 µM (inactive)
CC(C)N1C[C@H](C)[C@@H](CN(C)Cc2ccc(Cl)cc2)Oc2c(NC(=O)c3ccncc3)cccc2C1=O,AC50,[30],0.000541 µM (active)
same,IC50,[31],0.00107 µM (active)
Nc1c(OS(=O)(=O)c2ccccc2)cccc1OS(=O)(=O)c1ccccc1,EC50,[32],> 67.5 µM (inactive)
O=C(CN1CCOCC1)N1CC[C@@H]2[C@@H](CO)Nc3ccc(-c4ccccc4F)cc3[C@@H]21,AC50,[33],< 0.195 µM (active)
O=C(Nc1cc(N2CCCC2)ncn1)c1cccc(F)c1,IC50,[34],> 21.8 µM (inactive)
COC(=O)CSc1nnc2n(-c3ccc(OC)cc3)c(=O)c3c4c(sc3n12)CCCCC4,IC50,[35],28.2 µM (inactive)
same,EC50,[28],1.5 µM (active)
same,IC50,[36],38.1 µM (inactive)
